We go through 39 compounds from the C3SDB collision cross section collection.

“And” between values parts separate entries of the source, which are not always exact repeats. Equal values may be shown once.

For data set [1] the following is noted: instrument: DT, stepped-field.
The conditions of data set [2]: [M+H]+; instrument: TW; Major Mix IMS/Tof Calibration Kit (Waters).

`OCC1OC(OC2(CO)OC(CO)C(O)C2O)C(O)C(O)C1O` (centres undefined) [(Hex)2]: the “collision cross section (N2)” value in data set [1] ([M+Na-H2O]+) was 172.1 Å². Take `OCC1OC(OC2C(CO)OC(OC3C(CO)OC(O)C(O)C3O)C(O)C2O)C(O)C(O)C1O` (centres undefined) [(Hex)3]: the “collision cross section (N2)” value in data set [1] ([M+Na-H2O]+) was determined as 204.9 Å².

Take `OCC1OC(OC2C(CO)OC(OC3C(CO)OC(OC4C(CO)OC(OC5C(CO)OC(O)C(O)C5O)C(O)C4O)C(O)C3O)C(O)C2O)C(O)C(O)C1O` (centres undefined) [(Hex)5]: the “collision cross section (N2)” value is on record as 282.3 Å² in data set [1] ([M+H-H2O]+), 263.1 Å² in data set [1] ([M+Na-H2O]+) and 259.5 Å² in data set [1] ([M+Na]+). As to `OCC1OC(OC2C(CO)OC(OC3C(CO)OC(OC4C(CO)OC(OC5C(CO)OC(OC6C(CO)OC(OC7C(CO)OC(OC8C(CO)OC(OC9C(CO)OC(OC%10C(CO)OC(OC%11C(CO)OC(O)C(O)C%11O)C(O)C%10O)C(O)C9O)C(O)C8O)C(O)C7O)C(O)C6O)C(O)C5O)C(O)C4O)C(O)C3O)C(O)C2O)C(O)C(O)C1O` (centres undefined) [(Hex)11], the “collision cross section (N2)” value was 379.1 Å² in data set [1] ([M+H-H2O]+); 364.8 Å² and 367.1 Å² in data set [1] ([M+K]+); 369.7 Å² in data set [1] ([M+Li]+); 384.6 Å² in data set [1] ([M+Na]+); 363.1 Å² and 369.7 Å² in data set [1] ([M+Rb]+).

Consider `C[C@H](N)C(=O)N[C@@H](C)C(=O)NCC(=O)N[C@@H](Cc1c[nH]cn1)C(=O)N[C@@H](CC(=O)O)C(=O)NCC(=O)N[C@@H](CCCCN)C(=O)O` [AAGHDGK], for which the “collision cross section (N2)” value in data set [1] ([M+H]+) is listed as 249 Å².

Consider `CC(C)C[C@H](NC(=O)[C@H](CC(=O)O)NC(=O)[C@H](C)N)C(=O)N[C@@H](C)C(=O)N[C@@H](CCCCN)C(=O)O` [ADLAK], for which the “collision cross section (N2)” value in data set [1] ([M+H]+) turned out to be 228.3 Å².

As to `CCC(C)[C@H](NC(=O)[C@H](CC(C)C)NC(=O)[C@H](CC(C)C)NC(=O)[C@H](CCC(=O)O)NC(=O)[C@H](CC(N)=O)NC(=O)[C@H](C)N)C(=O)N[C@@H](CC(N)=O)C(=O)N[C@H](C(=O)N[C@@H](CCCCN)C(=O)O)C(C)C` (some centres undefined) [ANELLINVK], in data set [1] ([M+H]+), the “collision cross section (N2)” value is reported as 326.8 Å². With `OC[C@H]1O[C@@H]2O[C@H]3[C@H](O)[C@@H](O)[C@@H](O[C@H]4[C@H](O)[C@@H](O)[C@@H](O[C@H]5[C@H](O)[C@@H](O)[C@@H](O[C@H]6[C@H](O)[C@@H](O)[C@@H](O[C@H]7[C@H](O)[C@@H](O)[C@@H](O[C@H]1[C@H](O)[C@H]2O)O[C@@H]7CO)O[C@@H]6CO)O[C@@H]5CO)O[C@@H]4CO)O[C@@H]3CO` [Alpha-Cyclodextrin], the “collision cross section (N2)” value in data set [1] ([M+H]+) was 285.2 Å²; in data set [1] ([M+K]+), 287.7 Å²; in data set [1] ([M+Na]+), 285.5 Å².

In the case of `NCCCC[C@H](NC(=O)[C@H](CC(=O)O)NC(=O)CNC(=O)[C@@H](N)CC(=O)O)C(=O)O` [DGDK], in data set [1] ([M+H]+), the “collision cross section (N2)” value was found to be 195.8 Å².

Take `CC(C)[C@H](NC(=O)[C@@H](N)CC(=O)O)C(=O)N[C@@H](CS)C(=O)N[C@@H](CCCCN)C(=O)O` [DVCK]: the “collision cross section (N2)” value in data set [1] ([M+H]+) amounted to 204.7 Å². The same measure, in the same setting: with `CC(C)C[C@H](NC(=O)[C@H](Cc1ccc(O)cc1)NC(=O)[C@H](C)NC(=O)[C@H](C)NC(=O)[C@@H](N)Cc1ccccc1)C(=O)N[C@@H](CCC(=O)O)C(=O)N[C@@H](CCCNC(=N)N)C(=O)O` [FAAYLER] the figure was 295.5 Å². On to `NCCCC[C@H](NC(=O)[C@H](CC(N)=O)NC(=O)[C@H](CCC(N)=O)NC(=O)[C@@H](N)Cc1ccccc1)C(=O)O` [FQNK], for which, in data set [1] ([M+Na]+), the “collision cross section (N2)” value stood at 243.9 Å². For the compound `N=C(N)NCCC[C@H](NC(=O)[C@H](CC(=O)O)NC(=O)[C@H](CO)NC(=O)[C@H](CO)NC(=O)[C@@H](N)Cc1ccccc1)C(=O)O` [FSSDR], in data set [1] ([M+H]+), the “collision cross section (N2)” value was found to be 237.3 Å². The same measure, in the same setting: the same measure for `NCCCC[C@H](NC(=O)CNC(=O)[C@H](Cc1c[nH]c2ccccc12)NC(=O)[C@@H](N)Cc1ccccc1)C(=O)O` [FWGK]: 231 Å². In the case of `CCCCCCCCCCCCC=CC[C@@H](O)[C@H](CO[C@@H]1O[C@H](CO)[C@@H](O)C(O)C1O)NC(=O)CC=CCC=CCCCCCCCCCCCCCCC` (some centres undefined) [GlcCer(40:3)], in data set [1] ([M+Na]+), the “collision cross section (N2)” value amounted to 295.8 Å². With `CCCCC=CCC=CCC=CCC=CCC=CCC=CCC=CCC=CCC(=O)N[C@@H](CO[C@@H]1O[C@H](CO)[C@@H](O)C(O)C1O)[C@H](O)CC=CCCCCCCCCCCCC` (some centres undefined) [GlcCer(47:9)], the “collision cross section (N2)” value in data set [1] ([M+K]+) was determined as 316.4 Å². For `CCC(C)[C@H](N)C(=O)NCC(=O)N[C@@H](CO)C(=O)N[C@@H](CCC(=O)O)C(=O)N[C@H](C(=O)N[C@@H](Cc1ccc(O)cc1)C(=O)N[C@@H](Cc1c[nH]cn1)C(=O)N[C@@H](CC(N)=O)C(=O)N[C@@H](CC(C)C)C(=O)N[C@@H](CCCCN)C(=O)O)C(C)C` (some centres undefined) [IGSEVYHNLK], the “collision cross section (N2)” value in data set [1] ([M+H]+) is listed as 348.4 Å². On the same count and under the same terms, with `CCC(C)[C@H](N)C(=O)N[C@@H](Cc1c[nH]cn1)C(=O)N[C@@H](CCC(=O)O)C(=O)N[C@@H](Cc1ccc(O)cc1)C(=O)N[C@@H](CCCCN)C(=O)O` (some centres undefined) [IHEYK] the figure was 258.5 Å²; with `CC(C)C[C@H](N)C(=O)N[C@@H](Cc1c[nH]c2ccccc12)C(=O)N[C@@H](CO)C(=O)N[C@@H](C)C(=O)N[C@@H](CCCCN)C(=O)O` [LWSAK], 238.6 Å². Take `CC(=O)N[C@H]1[C@H](O[C@H]2[C@@H](O)[C@@H](CO)O[C@@H](O[C@@H]([C@H](O)[C@@H](O)C=O)[C@H](O)CO)[C@@H]2O)O[C@H](CO)[C@@H](O[C@@H]2O[C@@H](C)[C@@H](O)[C@@H](O)[C@@H]2O)[C@@H]1O[C@@H]1O[C@H](CO)[C@H](O)[C@H](O)[C@H]1O` [Lacto-N-Fucopentaose II]: the “collision cross section (N2)” value in data set [1] ([M+K]+) is recorded as 267.2 Å²; in data set [1] ([M+Na]+), 271.1 Å²; in data set [1] ([M+Rb]+), 278.4 Å². Consider `CC(=O)N[C@H]1[C@H](O[C@H]2[C@@H](O)[C@@H](CO)O[C@@H](O[C@H]3[C@H](O)[C@@H](O)C(O)O[C@@H]3CO)[C@@H]2O)O[C@H](CO)[C@@H](O)[C@@H]1O[C@@H]1O[C@H](CO)[C@H](O)[C@H](O)[C@H]1O[C@@H]1O[C@@H](C)[C@@H](O)[C@@H](O)[C@@H]1O` (some centres undefined) [Lacto-N-Fucopentaose I], for which the “collision cross section (N2)” value is given as 275.6 Å² in data set [1] ([M+Cs]+); 274.7 Å² in data set [1] ([M+K]+); 269.6 Å² in data set [1] ([M+Li]+); 276.1 Å² in data set [1] ([M+Na]+); 275.2 Å² in data set [1] ([M+Rb]+).

For the compound `OC[C@H]1O[C@@H](O[C@H]2[C@H](O)[C@@H](O)[C@@H](O)O[C@@H]2CO)[C@H](O)[C@@H](O)[C@H]1O` [Lactose], the “collision cross section (N2)” value was 186.3 Å² in data set [1] ([M+Li]+) and 178.1 Å² in data set [1] ([M+Na]+).

In the case of `CCC(C)[C@H](NC(=O)[C@@H](NC(=O)[C@@H](N)CCSC)C(C)C)C(=O)N[C@@H](CCCNC(=N)N)C(=O)O` (some centres undefined) [MVIR], the “collision cross section (N2)” value in data set [1] ([M+H]+) amounted to 228.7 Å². The same measure, in the same setting: the same measure for `N=C(N)NCCC[C@H](NC(=O)[C@H](CC(N)=O)NC(=O)[C@H](Cc1ccccc1)NC(=O)[C@@H](N)CC(N)=O)C(=O)O` [NFNR]: 225 Å².

In the case of `CCCCC/C=C\C/C=C\C/C=C\CCCCCCC(=O)O[C@H](COC(=O)CCCCCCCCCCCC)COP(=O)([O-])OCC[N+](C)(C)C` [PC(33:3)], the “collision cross section (N2)” value in data set [1] ([M+K]+) is 290.1 Å². Same read-out and setting: the same measure for `CC/C=C\C/C=C\C/C=C\C/C=C\C/C=C\C/C=C\CCC(=O)O[C@H](COC(=O)CCCCCCCCCCCC)COP(=O)([O-])OCC[N+](C)(C)C` [PC(35:6)]: 291.8 Å². For `CC/C=C\C/C=C\C/C=C\C/C=C\C/C=C\C/C=C\CCC(=O)O[C@H](COC(=O)CCCCCCC/C=C\CCCC)COP(=O)([O-])OCC[N+](C)(C)C` [PC(36:7)], in data set [1] ([M+Na]+), the “collision cross section (N2)” value is on record as 292.5 Å². Take `CC/C=C\C/C=C\C/C=C\C/C=C\C/C=C\C/C=C\CCC(=O)O[C@H](COC(=O)CCCCCCCCCCCCCC)COP(=O)([O-])OCC[N+](C)(C)C` [PC(37:6)]: in data set [1] ([M+K]+), the “collision cross section (N2)” value stood at 298.2 Å². The same measure, in the same setting: with `CC/C=C\C/C=C\C/C=C\C/C=C\C/C=C\CCCC(=O)O[C@H](COC(=O)CCCCCCC/C=C\CCCCCCCCC)COP(=O)([O-])OCC[N+](C)(C)C` [PC(39:6)] the figure was 303.4 Å²; with `CC/C=C\C/C=C\C/C=C\C/C=C\C/C=C\C/C=C\CCC(=O)OC[C@H](COP(=O)([O-])OCC[N+](C)(C)C)OC(=O)CCCCCCC/C=C\CCCCCCC` [PC(39:7)], 303.8 Å². `CC=CCC=CCC=CCC=CCC=CCC=CCC(=O)OC[C@H](COP(=O)(O)OCC[N+](C)(C)C)OC(=O)CC=CCC=CCC=CCC=CCC=CCC=CC` [PC(40:12)]: the “collision cross section (N2)” value in data set [1] ([M+Na]+) was found to be 300.6 Å².

With `CCCCCCCCCCCCCCCCCCCC(=O)O[C@H](COC(=O)CCCCCCCCCCCCCCCC)COP(=O)(O)OCCN` [PE(37:0)], the “collision cross section (N2)” value in data set [1] ([M+K]+) was 297.8 Å². `COc1ccc(CCNCCCC(C#N)(c2ccc(OC)c(OC)c2)C(C)C)cc1OC` (centres undefined) [Verapamil-M nor]: the “collision cross section (N2)” value in data set [2] is listed as 207.3 Å². Still for that read-out and setting: the same measure for `Cc1cccc(C)c1NC1=NCCCS1` [Xylazine]: 147.9 Å²; for `Cc1cc(C(C)(C)C)cc(C)c1CC1=NCCN1` [Xylometazoline]: 170.4 Å²; for `COC(=O)[C@@H]1[C@H]2C[C@H]3c4[nH]c5ccccc5c4CCN3C[C@@H]2CC[C@@H]1O` [Yohimbine]: 186.5 Å².

In the case of `Cc1ccc2nc(-c3ccc(C(=O)O)cc3)c(CC(=O)N(C)C)n2c1` [Zolpidem-M Carboxylic acid], the “collision cross section (N2)” value in data set [2] amounted to 184.4 Å². On the same count and under the same terms, the same measure for `CN1CCN(C(=O)OC2c3nccnc3C(=O)N2c2ccc(Cl)cn2)CC1` (centres undefined) [Zopiclone]: 188.5 Å²; for `FC(F)(F)c1cccc(N2CCNCC2)c1` [m-Trifluorophenylpiperazine (TFMPP)]: 151.1 Å².
